Activity calls are given as the source filed them. The calls are words filed in the database; no cut-off is given here.
Legend:
[1] = system: Mycobacterium tuberculosis; assay: Clearance of Mycobacterium tuberculosis H37Rv in BALB/c mouse spleen at 25 mg/kg, po five times/week after 1 month relative to control; format: functional, organism-based; design: dose 25 mg/kg
[2] = system: Mycobacterium tuberculosis; assay: Clearance of Mycobacterium tuberculosis H37Rv in BALB/c mouse lung at 25 mg/kg, po five times/week after 1 month relative to control; format: functional, organism-based; design: dose 25 mg/kg
[3] = system: Mycobacterium tuberculosis; assay: Decrease in spleen infection of BALB/c mouse infected with Mycobacterium tuberculosis H37Rv at 20 mg/kg, po five times/week after 1 month relative to control; format: functional
[4] = system: Mycobacterium tuberculosis; assay: Decrease in spleen infection of BALB/c mouse infected with Mycobacterium tuberculosis H37Rv at 40 mg/kg, po five times/week after 1 month relative to control; format: functional
[5] = system: Mycobacterium tuberculosis; assay: Decrease in spleen infection of BALB/c mouse infected with Mycobacterium tuberculosis H37Rv at 10 mg/kg, po five times/week after 1 month relative to control; format: functional

**Q.** What does the source list for `NNC(=O)c1ccncc1`?
**A.** Activity [1]: Active; Activity [2]: Active

**Q.** `CC(=O)Oc1ccccc1C(=O)O` [ASPIRIN] was tested. Which Log10 cfu [3] did it give?
**A.** 4.55

**Q.** And the Log10 cfu [4]?
**A.** 4.38

**Q.** What about the Log10 cfu [5] of the same compound?
**A.** 3.48

Reference: ChEMBL document CHEMBL1142207, “Aspirin antagonism in isoniazid treatment of tuberculosis in mice” (2007)
